Values quoted from earlier work, collected in patent publication US20040109886A1 (priority 2002, published 2004).

Assays:
[1] = base

Structure (SMILES): O=C(CCCN1CC=C(n2c(=O)[nH]c3ccccc32)CC1)c1ccc(F)cc1 [droperidol]
- pKa [1]: 7.64
- solubility in acidic water (acidic water): soluble
- solubility in alcohol (alcohol): high solubility
